Laboratory results from ChEMBL document CHEMBL1141242, “Estrogen receptor beta selective ligands: discovery and SAR of novel heterocyclic ligands” (Bioorg Med Chem Lett, 2005).

Columns and labels:
Estrogen receptor beta [1] = molecular target: Estrogen receptor beta (Homo sapiens, UniProt Q92731); test: biochemical
Estrogen receptor [2] = molecular target: T1, Estrogen receptor (Homo sapiens, UniProt P03372); test: biochemical
T1 sequence (P03372 whole entry): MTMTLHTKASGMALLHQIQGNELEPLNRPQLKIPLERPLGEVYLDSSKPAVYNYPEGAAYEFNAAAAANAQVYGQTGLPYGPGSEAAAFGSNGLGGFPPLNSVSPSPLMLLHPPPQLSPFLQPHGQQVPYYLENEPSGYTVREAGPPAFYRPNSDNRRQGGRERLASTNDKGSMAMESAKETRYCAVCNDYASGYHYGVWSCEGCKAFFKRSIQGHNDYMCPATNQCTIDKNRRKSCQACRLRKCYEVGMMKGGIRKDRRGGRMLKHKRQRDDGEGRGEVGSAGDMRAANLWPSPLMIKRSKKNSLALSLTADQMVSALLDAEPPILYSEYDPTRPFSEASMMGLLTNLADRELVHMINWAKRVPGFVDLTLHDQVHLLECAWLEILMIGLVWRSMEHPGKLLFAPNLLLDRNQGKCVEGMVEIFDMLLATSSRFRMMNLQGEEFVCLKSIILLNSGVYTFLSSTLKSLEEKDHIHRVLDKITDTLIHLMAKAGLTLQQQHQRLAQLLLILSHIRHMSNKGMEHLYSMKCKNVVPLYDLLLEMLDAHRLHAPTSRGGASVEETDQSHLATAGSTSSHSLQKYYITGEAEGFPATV

Estrogen receptor beta [3] = molecular target: Estrogen receptor beta (Rattus norvegicus, UniProt Q62986)
Description: Effect on ERbeta in rat ovary granulosa cell line transfected with ER responsive luciferase reporter

Estrogen receptor [4] = molecular target: T1, Estrogen receptor
Description: Effect on ERalpha in MCF7 cell line transfected with ER responsive luciferase reporter

Estrogen receptor beta (Rattus norvegicus, UniProt Q62986), sequence (Q62986 whole entry): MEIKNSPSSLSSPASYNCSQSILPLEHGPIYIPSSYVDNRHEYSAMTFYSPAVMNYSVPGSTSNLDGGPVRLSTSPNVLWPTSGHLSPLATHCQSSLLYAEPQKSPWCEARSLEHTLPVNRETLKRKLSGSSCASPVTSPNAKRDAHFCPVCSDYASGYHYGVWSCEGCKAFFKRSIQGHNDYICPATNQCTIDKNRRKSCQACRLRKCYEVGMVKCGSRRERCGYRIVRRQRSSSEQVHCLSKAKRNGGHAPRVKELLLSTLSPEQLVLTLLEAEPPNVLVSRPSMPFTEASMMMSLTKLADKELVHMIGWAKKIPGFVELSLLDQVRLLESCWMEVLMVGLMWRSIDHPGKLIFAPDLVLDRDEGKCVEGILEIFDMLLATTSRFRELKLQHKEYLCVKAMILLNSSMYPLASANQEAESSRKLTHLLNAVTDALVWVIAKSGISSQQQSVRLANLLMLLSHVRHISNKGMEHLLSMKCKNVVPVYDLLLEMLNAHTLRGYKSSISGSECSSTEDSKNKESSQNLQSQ
Estrogen receptor beta (Homo sapiens, UniProt Q92731), sequence (Q92731 whole entry): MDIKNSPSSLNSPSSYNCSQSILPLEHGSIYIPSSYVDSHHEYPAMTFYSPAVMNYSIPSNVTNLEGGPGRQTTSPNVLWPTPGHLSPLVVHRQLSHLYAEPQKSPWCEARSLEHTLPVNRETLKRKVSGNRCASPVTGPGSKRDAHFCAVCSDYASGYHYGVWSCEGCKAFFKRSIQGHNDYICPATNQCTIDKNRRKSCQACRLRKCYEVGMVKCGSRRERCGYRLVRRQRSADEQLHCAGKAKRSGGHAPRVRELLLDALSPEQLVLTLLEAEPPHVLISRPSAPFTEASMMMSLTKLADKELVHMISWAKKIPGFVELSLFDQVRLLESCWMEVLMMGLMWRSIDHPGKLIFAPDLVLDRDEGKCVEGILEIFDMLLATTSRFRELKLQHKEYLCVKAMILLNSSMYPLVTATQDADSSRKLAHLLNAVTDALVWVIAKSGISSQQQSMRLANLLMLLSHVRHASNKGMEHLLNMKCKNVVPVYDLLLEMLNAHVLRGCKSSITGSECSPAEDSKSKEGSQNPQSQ

Row | Structure (SMILES) | IC50 (Estrogen receptor beta [1]) [nM] | IC50 (Estrogen receptor [2]) [nM] | EC50 (Estrogen receptor beta [3]) [nM] | EC50 (Estrogen receptor [4]) [nM]
1 | Cc1nocc1-c1nc2ccccc2n1-c1ccc(O)cc1 | 14.3 | 1160 | – | –
2 | Cn1cccc1-c1nc2ccccc2n1-c1ccc(O)cc1 | 28.1 | 2940 | 40.8 | > 1000
3 | Oc1ccc(-n2c(-c3cccs3)nc3ccccc32)cc1 | 49.7 | > 6260 | – | –
4 | Oc1ccc(-c2[nH]c3ccccc3c2-c2ccccc2)cc1 | 355 | 8310 | – | –
5 | Oc1ccc(-n2c(-c3ccccc3Cl)nc3ccccc32)cc1 | 149 | 1730 | – | –
6 | c1ccc(-c2[nH]c3ccccc3c2-c2ccccc2)cc1 | 171 | 6950 | – | –
7 | Oc1ccc(-c2[nH]c(C(F)(F)F)nc2-c2ccccc2)cc1 | 15.1 | 403 | 6.7 | 243
8 | Oc1ccc(-c2[nH]c3ccccc3c2-c2ccc(O)cc2)cc1 | 11.9 | 94.8 | – | –
9 | Oc1ccc(-n2c(-c3ccccc3)nc3ccccc32)cc1 | 137 | 1800 | – | –
10 | Oc1ccc(-c2noc(C(F)(F)F)c2-c2ccccc2)cc1 | 2.4 | 8.5 | – | –
11 | Oc1ccc(-c2c(-c3ccccc3)[nH]c3ccccc23)cc1 | 1.12 | 24 | 1.09 | 38.5
